Assay results published in the NIST ThermoML archive (doi:10.1016/j.jct.2004.04.003).
Where “and” joins values, the source holds several entries; their conditions need not be identical. Equal values may be shown once.

Tests used:
[1] = Molar enthalpy of transition or fusion; details: Adiabatic calorimetry
[2] = for vapor or sublimation pressure: Twin ebulliometer; for Triple point temperature: Adiabatic calorimetry
[3] = molar heat capacity at saturation pressure

C1CCC(C2CCCC2)C1 [1,1'-bicyclopentyl]
Details	Molar enthalpy of transition or fusion, Crystal 1 [kcal/mol]	Molar enthalpy of transition or fusion, Crystal 2 [kcal/mol]	Triple point temperature, Crystal 1 [K]	Triple point temperature, Crystal 2 [K]	Triple point temperature, Crystal 3 [K]
[1]	3.202	0.06142	–	–	–
[2]	–	–	237.82	171.5	128.4

Details	Critical temperature [K]	mass density [kg/m3]	molar heat capacity	vapor or sublimation pressure [kPa]
[2], 384 K, Liquid	–	–	–	9.59
[2], 387.47 K, Liquid	–	–	–	10.89
[2], 390.95 K, Liquid	–	–	–	12.35
[2], 394.45 K, Liquid	–	–	–	13.96
[2], 397.96 K, Liquid	–	–	–	15.75
[2], 401.49 K, Liquid	–	–	–	17.74
[2], 405.02 K, Liquid	–	–	–	19.93
[2], 405.03 K, Liquid	–	–	–	19.93
[2], 412.15 K, Liquid	–	–	–	25.02
[2], 419.33 K, Liquid	–	–	–	31.18
[2], 426.57 K, Liquid	–	–	–	38.56
[2], 433.87 K, Liquid	–	–	–	47.38
[2], 441.22 K, Liquid	–	–	–	57.82
[2], 448.61 K, Liquid	–	–	–	70.12
[2], 456.08 K, Liquid	–	–	–	84.53
[2], 463.61 K, Liquid	–	–	–	101.33
[2], 471.19 K, Liquid	–	–	–	120.79
[2], 478.83 K, Liquid	–	–	–	143.25
[2], 486.53 K, Liquid	–	–	–	169.02
[2], 494.28 K, Liquid	–	–	–	198.49
[2], 502.09 K, Liquid	–	–	–	232.02
[2], 509.97 K, Liquid	–	–	–	270.02
[2], 662.5 K, Gas	–	114.4	–	–
[2], 682.8 K, Gas	–	171.2	–	–
[2], 685.1 K, Liquid	–	366	–	–
[2], 687.3 K, Liquid	–	347.2	–	–
[2], 689.6 K, Liquid	–	311	–	–
[2], 689.8 K, Gas	–	244.4	–	–
[2], Liquid, DTA	690	–	–	–
[3], 10 K, Crystal 3, Vacuum adiabatic calorimetry	–	–	2.73 J/K/mol	–
[3], 11.5 K, Crystal 3, Vacuum adiabatic calorimetry	–	–	4.08 J/K/mol	–
[3], 11.8 K, Crystal 3, Vacuum adiabatic calorimetry	–	–	4.35 J/K/mol	–
[3], 13.17 K, Crystal 3, Vacuum adiabatic calorimetry	–	–	5.8 J/K/mol	–
[3], 13.37 K, Crystal 3, Vacuum adiabatic calorimetry	–	–	6.03 J/K/mol	–
[3], 14.83 K, Crystal 3, Vacuum adiabatic calorimetry	–	–	7.75 J/K/mol	–
[3], 14.99 K, Crystal 3, Vacuum adiabatic calorimetry	–	–	7.95 J/K/mol	–
[3], 16.64 K, Crystal 3, Vacuum adiabatic calorimetry	–	–	10.09 J/K/mol	–
[3], 16.69 K, Crystal 3, Vacuum adiabatic calorimetry	–	–	10.19 J/K/mol	–
[3], 18.46 K, Crystal 3, Vacuum adiabatic calorimetry	–	–	12.62 J/K/mol	–
[3], 18.63 K, Crystal 3, Vacuum adiabatic calorimetry	–	–	12.87 J/K/mol	–
[3], 20 K, Crystal 3, Vacuum adiabatic calorimetry	–	–	14.82 J/K/mol	–
[3], 20.51 K, Crystal 3, Vacuum adiabatic calorimetry	–	–	15.56 J/K/mol	–
[3], 20.71 K, Crystal 3, Vacuum adiabatic calorimetry	–	–	15.86 J/K/mol	–
[3], 22.72 K, Crystal 3, Vacuum adiabatic calorimetry	–	–	18.82 J/K/mol	–
[3], 22.99 K, Crystal 3, Vacuum adiabatic calorimetry	–	–	19.31 J/K/mol	–
[3], 25.1 K, Crystal 3, Vacuum adiabatic calorimetry	–	–	22.6 J/K/mol	–
[3], 25.32 K, Crystal 3, Vacuum adiabatic calorimetry	–	–	22.88 J/K/mol	–
[3], 27.67 K, Crystal 3, Vacuum adiabatic calorimetry	–	–	26.42 J/K/mol	–
[3], 30 K, Crystal 3, Vacuum adiabatic calorimetry	–	–	29.89 J/K/mol	–
[3], 30.51 K, Crystal 3, Vacuum adiabatic calorimetry	–	–	30.65 J/K/mol	–
[3], 33.62 K, Crystal 3, Vacuum adiabatic calorimetry	–	–	35.24 J/K/mol	–
[3], 37.09 K, Crystal 3, Vacuum adiabatic calorimetry	–	–	40.13 J/K/mol	–
[3], 40 K, Crystal 3, Vacuum adiabatic calorimetry	–	–	44.07 J/K/mol	–
[3], 40.84 K, Crystal 3, Vacuum adiabatic calorimetry	–	–	45.17 J/K/mol	–
[3], 44.81 K, Crystal 3, Vacuum adiabatic calorimetry	–	–	49.8 J/K/mol	–
[3], 49.26 K, Crystal 3, Vacuum adiabatic calorimetry	–	–	55.04 J/K/mol	–
[3], 50 K, Crystal 3, Vacuum adiabatic calorimetry	–	–	55.91 J/K/mol	–
[3], 54.23 K, Crystal 3, Vacuum adiabatic calorimetry	–	–	60.6 J/K/mol	–
[3], 54.24 K, Crystal 3, Vacuum adiabatic calorimetry	–	–	60.62 J/K/mol	–
[3], 59.45 K, Crystal 3, Vacuum adiabatic calorimetry	–	–	65.6 J/K/mol	–
[3], 60 K, Crystal 3, Vacuum adiabatic calorimetry	–	–	66.15 J/K/mol	–
[3], 65.02 K, Crystal 3, Vacuum adiabatic calorimetry	–	–	70.77 J/K/mol	–
[3], 70 K, Crystal 3, Vacuum adiabatic calorimetry	–	–	74.88 J/K/mol	–
[3], 71.12 K, Crystal 3, Vacuum adiabatic calorimetry	–	–	75.75 J/K/mol	–
[3], 77.81 K, Crystal 3, Vacuum adiabatic calorimetry	–	–	80.69 J/K/mol	–
[3], 80 K, Crystal 3, Vacuum adiabatic calorimetry	–	–	82.21 J/K/mol	–
[3], 84.9 K, Crystal 3, Vacuum adiabatic calorimetry	–	–	85.44 J/K/mol	–
[3], 90 K, Crystal 3, Vacuum adiabatic calorimetry	–	–	88.7 J/K/mol	–
[3], 90.4 K, Crystal 3, Vacuum adiabatic calorimetry	–	–	88.97 J/K/mol	–
[3], 92.15 K, Crystal 3, Vacuum adiabatic calorimetry	–	–	90 J/K/mol	–
[3], 95.17 K, Crystal 3, Vacuum adiabatic calorimetry	–	–	91.72 J/K/mol	–
[3], 97.64 K, Crystal 3, Vacuum adiabatic calorimetry	–	–	93.21 J/K/mol	–
[3], 100 K, Crystal 3, Vacuum adiabatic calorimetry	–	–	94.56 J/K/mol	–
[3], 102.4 K, Crystal 3, Vacuum adiabatic calorimetry	–	–	95.85 J/K/mol	–
[3], 105.1 K, Crystal 3, Vacuum adiabatic calorimetry	–	–	97.46 J/K/mol	–
[3], 110 K, Crystal 3, Vacuum adiabatic calorimetry	–	–	100.28 J/K/mol	–
[3], 112.84 K, Crystal 3, Vacuum adiabatic calorimetry	–	–	102.05 J/K/mol	–
[3], 116.54 K, Crystal 3, Vacuum adiabatic calorimetry	–	–	104.26 J/K/mol	–
[3], 118.13 K, Crystal 3, Vacuum adiabatic calorimetry	–	–	105.18 J/K/mol	–
[3], 118.17 K, Crystal 3, Vacuum adiabatic calorimetry	–	–	105.56 J/K/mol	–
[3], 120 K, Crystal 3, Vacuum adiabatic calorimetry	–	–	106.6 J/K/mol	–
[3], 120.99 K, Crystal 3, Vacuum adiabatic calorimetry	–	–	107.39 J/K/mol	–
[3], 126.75 K, Crystal 3, Vacuum adiabatic calorimetry	–	–	111.08 J/K/mol	–
[3], 128.4 K, Crystal 1, Vacuum adiabatic calorimetry	–	–	115.78 J/K/mol	–
[3], 128.4 K, Crystal 3, Vacuum adiabatic calorimetry	–	–	112.23 J/K/mol	–
[3], 130 K, Crystal 1, Vacuum adiabatic calorimetry	–	–	116.49 J/K/mol	–
[3], 133.46 K, Crystal 2, Vacuum adiabatic calorimetry	–	–	118.05 J/K/mol	–
[3], 133.78 K, Crystal 2, Vacuum adiabatic calorimetry	–	–	118.67 J/K/mol	–
[3], 134.12 K, Crystal 2, Vacuum adiabatic calorimetry	–	–	118.41 J/K/mol	–
[3], 135.2 K, Crystal 2, Vacuum adiabatic calorimetry	–	–	118.41 J/K/mol	–
[3], 139.41 K, Crystal 2, Vacuum adiabatic calorimetry	–	–	121.01 J/K/mol	–
[3], 140 K, Crystal 1, Vacuum adiabatic calorimetry	–	–	121.32 J/K/mol	–
[3], 142.47 K, Crystal 2, Vacuum adiabatic calorimetry	–	–	122.75 J/K/mol	–
[3], 143.12 K, Crystal 2, Vacuum adiabatic calorimetry	–	–	122.93 J/K/mol	–
[3], 150 K, Crystal 1, Vacuum adiabatic calorimetry	–	–	126.87 J/K/mol	–
[3], 151.25 K, Crystal 2, Vacuum adiabatic calorimetry	–	–	127.64 J/K/mol	–
[3], 152.11 K, Crystal 2, Vacuum adiabatic calorimetry	–	–	128.17 J/K/mol	–
[3], 160 K, Crystal 1, Vacuum adiabatic calorimetry	–	–	133.12 J/K/mol	–
[3], 160.68 K, Crystal 2, Vacuum adiabatic calorimetry	–	–	133.74 J/K/mol	–
[3], 160.78 K, Crystal 2, Vacuum adiabatic calorimetry	–	–	133.46 J/K/mol	–
[3], 166.89 K, Crystal 2, Vacuum adiabatic calorimetry	–	–	138.79 J/K/mol	–
[3], 170 K, Crystal 1, Vacuum adiabatic calorimetry	–	–	140.08 J/K/mol	–
[3], 171.5 K, Crystal 1, Vacuum adiabatic calorimetry	–	–	141.19 J/K/mol and 136.32 J/K/mol	–
[3], 173.81 K, Crystal 1, Vacuum adiabatic calorimetry	–	–	137.58 J/K/mol	–
[3], 178.13 K, Crystal 1, Vacuum adiabatic calorimetry	–	–	139.77 J/K/mol	–
[3], 180 K, Crystal 1, Vacuum adiabatic calorimetry	–	–	141.36 J/K/mol	–
[3], 181.67 K, Crystal 1, Vacuum adiabatic calorimetry	–	–	142.75 J/K/mol	–
[3], 182.42 K, Crystal 1, Vacuum adiabatic calorimetry	–	–	143.41 J/K/mol	–
[3], 186.12 K, Crystal 1, Vacuum adiabatic calorimetry	–	–	145.42 J/K/mol	–
[3], 190 K, Crystal 1, Vacuum adiabatic calorimetry	–	–	148.08 J/K/mol	–
[3], 190.41 K, Crystal 1, Vacuum adiabatic calorimetry	–	–	148.06 J/K/mol	–
[3], 194.17 K, Crystal 1, Vacuum adiabatic calorimetry	–	–	151.17 J/K/mol	–
[3], 200 K, Crystal 1, Vacuum adiabatic calorimetry	–	–	155.66 J/K/mol	–
[3], 202.37 K, Crystal 1, Vacuum adiabatic calorimetry	–	–	157.69 J/K/mol	–
[3], 210 K, Crystal 1, Vacuum adiabatic calorimetry	–	–	164.11 J/K/mol	–
[3], 210.53 K, Crystal 1, Vacuum adiabatic calorimetry	–	–	164.59 J/K/mol	–
[3], 215.22 K, Crystal 1, Vacuum adiabatic calorimetry	–	–	168.8 J/K/mol	–
[3], 218.83 K, Crystal 1, Vacuum adiabatic calorimetry	–	–	172.67 J/K/mol	–
[3], 220 K, Crystal 1, Vacuum adiabatic calorimetry	–	–	173.41 J/K/mol	–
[3], 223.28 K, Crystal 1, Vacuum adiabatic calorimetry	–	–	177.54 J/K/mol	–
[3], 230 K, Crystal 1, Vacuum adiabatic calorimetry	–	–	183.54 J/K/mol	–
[3], 230.93 K, Crystal 1, Vacuum adiabatic calorimetry	–	–	187.18 J/K/mol	–
[3], 237.82 K, Crystal 1, Vacuum adiabatic calorimetry	–	–	192.05 J/K/mol	–
[3], 420 K, Liquid	–	–	312.05 J/K/mol	–
[3], 440 K, Liquid	–	–	324.49 J/K/mol	–
[3], 460 K, Liquid	–	–	336.88 J/K/mol	–
[3], 480 K, Liquid	–	–	349.1 J/K/mol	–
[3], 500 K, Liquid	–	–	361.07 J/K/mol	–
[3], 520 K, Liquid	–	–	372.68 J/K/mol	–
[3], 540 K, Liquid	–	–	383.83 J/K/mol	–
[3], 560 K, Liquid	–	–	394.48 J/K/mol	–
[3], 580 K, Liquid	–	–	404.71 J/K/mol	–
[3], 600 K, Liquid	–	–	414.76 J/K/mol	–

[3], Liquid, Vacuum adiabatic calorimetry
Details	molar heat capacity [J/K/mol]
235.7 K	209.39
237.82 K	210.18
240 K	211.02
242.86 K	212.18
250 K	215.09
251.35 K	215.65
251.38 K	215.6
260 K	219.43
260.38 K	219.61
260.4 K	219.59
269.99 K	224.12
270 K	224.11
279.85 K	228.87
280 K	228.97
289.97 K	234.24
290 K	234.26
298.15 K	238.69
300 K	239.71
300.32 K	239.88
303.62 K	241.76
312.36 K	246.68
320 K	251.11
321.76 K	252.14
331.4 K	257.76
340 K	262.83
340.79 K	263.29
350.44 K	269.11
360 K	274.85
360.31 K	275.02
369.98 K	281.03
379.48 K	286.87
380 K	287.22
388.81 K	292.97
400 K	299.69
